Assay results: patent US7342004B2, “Thioether sulphamate steroids as steroid inhibitors and anti-cancer compounds” (Sterix Ltd., priority 2000, dated 2008)
Like-named read-outs stand apart in the source and are kept apart here. One block for each compound: values may come before it.

How the values were obtained:
[1] = target: T1, steroid sulphatase (STS) (Homo sapiens, UniProt P08842); assay: Inhibition of steroid sulphatase activity in placental microsomes, Protocol 4; format: biochemical; conditions: for inhibition at 0.01 µM: read-out: Placental Microsomes, % inhibition 10 nM; for inhibition at 1 µM: read-out: Placental Microsomes, % inhibition 1 μM
T1 sequence (P08842 22-583): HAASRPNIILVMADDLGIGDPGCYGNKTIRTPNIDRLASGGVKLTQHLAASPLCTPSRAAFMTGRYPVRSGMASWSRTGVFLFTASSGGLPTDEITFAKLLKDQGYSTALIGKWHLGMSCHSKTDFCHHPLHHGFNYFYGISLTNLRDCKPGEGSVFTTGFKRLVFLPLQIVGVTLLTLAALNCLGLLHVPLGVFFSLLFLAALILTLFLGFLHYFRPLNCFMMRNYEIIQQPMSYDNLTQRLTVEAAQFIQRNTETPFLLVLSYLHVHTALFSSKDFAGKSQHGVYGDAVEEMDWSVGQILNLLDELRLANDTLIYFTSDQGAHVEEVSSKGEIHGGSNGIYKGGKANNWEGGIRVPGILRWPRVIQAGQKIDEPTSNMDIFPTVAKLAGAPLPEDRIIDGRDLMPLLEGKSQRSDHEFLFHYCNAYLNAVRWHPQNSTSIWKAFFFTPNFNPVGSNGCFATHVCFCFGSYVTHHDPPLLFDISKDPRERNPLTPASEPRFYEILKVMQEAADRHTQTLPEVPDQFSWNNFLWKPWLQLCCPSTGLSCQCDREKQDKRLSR
Protocol: Sulphatase-positive human placenta from normal term pregnancies are thoroughly minced with scissors and washed once with cold phosphate buffer (pH 7.4, 50 mM) then resuspended in cold phosphate buffer (5 ml/g tissue). Homogenisation is accomplished with an Ultra-Turrax homogeniser, using three 10 second bursts separated by 2 minute cooling periods in ice. Nuclei and cell debris are removed by centrifuging (4° C.) at 2000 g for 30 minutes and portions (2 ml) of the supernatant are stored at […] The protein concentration of the supernatants is determined by the method of Bradford (Anal. Biochem., 72, 248-254 (1976)).
Incubations (1 ml) are carried out using a protein concentration of […], substrate concentration of […] [6,7-3H]oestrone-3-sulphate (specific activity 60 Ci/mmol from New England Nuclear, Boston, Mass., U.S.A.) and an incubation time of 20 minutes at 37° C. If necessary eight concentrations of compounds are employed: 0 (i.e. control); 0.05 mM; 0.1 mM; 0.2 mM; 0.4 mM; 0.6 mM; 0.8 mM; 1.0 mM. After incubation each sample is cooled and the medium (1 ml) was pipetted into separate tubes containing [14C]oestrone (7×10^3 dpm) (specific activity 97 Ci/mmol from Amersham International Radiochemical Centre, Amersham, U.K.). The mixture is shaken thoroughly for 30 seconds with toluene (5 ml). Experiments have shown that >90% [14C]oestrone and <0.1% [3H]oestrone-3-sulphate is removed from the aqueous phase by this treatment. A portion (2 ml) of the organic phase was removed, evaporated and the 3H and 14C content of the residue determined by scintillation spectrometry. The mass of oestrone-3-sulphate hydrolysed is calculated from the 3H counts obtained (corrected for the volumes of the medium and organic phase used, and for recovery of [14C]oestrone added) and the specific activity of the substrate.
(§1) The STS inhibition provided by the compounds was determined in accordance with the placental microsomes assay of Protocol 4 and a plate assay.

[2] = system: STS; assay: Plate assay, % inhibition; format: biochemical
Protocol: as §1

[3] = target: CuZnSOD (UniProt P00442); assay: Superoxide dismutase (SOD) spectrophotometric XTT assay, Protocol 1; format: biochemical
[4] = target: T2, rat liver E1-STS (Rattus norvegicus, UniProt P15589); conditions: administered either orally or subcutaneously; cited from earlier work
T2 construct: from tissue; host or cells: rat liver (after oral or subcutaneous dosing)
T2 sequence (P15589 20-577): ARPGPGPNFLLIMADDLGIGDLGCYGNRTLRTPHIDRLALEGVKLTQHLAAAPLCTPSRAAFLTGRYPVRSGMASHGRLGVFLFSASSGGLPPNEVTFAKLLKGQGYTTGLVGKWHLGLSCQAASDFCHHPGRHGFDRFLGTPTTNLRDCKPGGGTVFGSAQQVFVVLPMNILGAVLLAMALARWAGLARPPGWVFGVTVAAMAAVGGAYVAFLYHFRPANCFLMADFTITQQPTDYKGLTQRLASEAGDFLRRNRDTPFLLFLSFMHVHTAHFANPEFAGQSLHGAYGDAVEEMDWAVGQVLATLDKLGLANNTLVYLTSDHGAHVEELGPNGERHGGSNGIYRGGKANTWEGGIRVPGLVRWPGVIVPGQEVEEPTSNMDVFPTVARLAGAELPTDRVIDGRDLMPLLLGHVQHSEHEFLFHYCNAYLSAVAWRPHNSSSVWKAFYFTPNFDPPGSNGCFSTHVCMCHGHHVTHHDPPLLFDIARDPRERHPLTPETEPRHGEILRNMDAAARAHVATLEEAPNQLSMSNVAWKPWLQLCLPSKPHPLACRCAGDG

[5] = target: T3, DHA-STS (Rattus norvegicus, UniProt P15589); conditions: administered either orally or subcutaneously; cited from earlier work
T3 construct: from tissue; host or cells: rat liver (after oral or subcutaneous dosing)
T3 sequence (P15589 20-577): T2 sequence (P15589 20-577)

[6] = system: uterus; conditions: oral, rats, higher than that of estradiol; cited from earlier work
[7] = xanthine oxidase/XTT, 24° C., 30 minutes, read-out: IC 50/μM (+/− SEM) SOD Inhibition
[8] = read-out: IC 50/μM (+/− SEM) SOD Inhibition, xanthine oxidase/XTT, 24° C., 30 minutes

SMILES: CSc1cc2c(cc1OS(N)(=O)=O)CCC1C2CC[C@@]2(C)C1CC[C@@]2(O)Cc1ccccc1 (stereo in doubt) [Compound 30, Sulfamic acid 17-benzyl-17-hydroxy-13-methyl-2-methylsulfanyl-7,8,9,11,12,13,14, 15,16,17-decahydro-6H-cyclopenta[a]phenanthren-3-yl ester]
IC50 ([1]; placental microsomes): 0.044 µM
inhibition at 0.01 µM [1]: 15.5%
inhibition at 0.1 µM ([1]; read-out: Placental Microsomes, % inhibition 100 nM): 69.7%
inhibition at 1 µM [1]: 93%
inhibition at 10 µM ([1]; read-out: Placental Microsomes, % inhibition 10 μM): 97.4%
Plate Assay, % inhibition 0.1 μM [2]: <1%
Plate Assay, % inhibition 1 μM [2]: <1%
Plate Assay, % inhibition 10 μM [2]: 31%

SMILES: CCOc1cc2c(cc1O)CCC1C2CCC2(C)C(O)CCC12 (stereo not drawn) [Compound 2, 2-ethoxyestradiol]
IC50 [3, 7]: 11 µM

SMILES: COc1cc2c(cc1O)CCC1C2CCC2(C)C(O)CCC12 (stereo not drawn) [Compound 3, 2-methoxy-17β-estradiol, reference compound]
IC50 [3, 7]: 12 µM

SMILES: COc1cc2c(cc1O)CCC1C2CCC2(C)C(O)CCC12 (stereo not drawn) [Compound 4, 2-methoxy-17α-estradiol]
IC50 [3, 7]: 13 µM

SMILES: CCSc1cc2c(cc1O)CCC1C2CCC2(C)C(O)CCC12 (stereo not drawn) [Compound 6, 2-ethylsulfanylestradiol]
IC50 [3, 7]: 14 µM

SMILES: CSc1cc2c(cc1O)CCC1C2CC[C@]2(C)C(=O)CCC12 (stereo partly drawn) [Compound 8, 2-methylsulfanylestrone]
IC50 [3, 7]: 21 µM
Plate Assay, % inhibition 0.1 μM [2]: <1%
Plate Assay, % inhibition 1 μM [2]: 1%
Plate Assay, % inhibition 10 μM [2]: 11%

SMILES: CCSc1cc2c(cc1O)CCC1C2CC[C@]2(C)C(=O)CCC12 (stereo partly drawn) [Compound 10, 2-ethylsulfanylestrone]
IC50 [3, 7]: 79 µM
Plate Assay, % inhibition 0.1 μM [2]: <1%
Plate Assay, % inhibition 1 μM [2]: <4%
Plate Assay, % inhibition 10 μM [2]: 14%

SMILES: COc1cc2c(cc1O)CCC1C2CCC2(C)C1CCC2(O)Cc1ccccc1 (stereo not drawn) [Compound 13, 2-methoxy-17α-benzyl-estradiol]
IC50 [3, 8]: 88 µM

SMILES: COc1cc2c3c(c(=O)oc2cc1O)CCCCC3 [Compound 14, 3-Hydroxy-2-methoxy-6-oxo-8,9,10,11-tetrahydro-7H-cyclohepta-[c][1]benzopyran]
IC50 [3, 7]: 91 µM

SMILES: CC12CCC3c4cc(I)c(O)cc4CCC3C1CCC2=O (stereo not drawn) [Compound 16, 2-iodoestrone]
IC50 [3, 7]: > 100 µM

SMILES: COc1cc2c(c([N+](=O)[O-])c1O)CCC1C2CCC2(C)C(=O)CCC12 (stereo not drawn) [Compound 22, 2-methoxy-4-nitroestrone]
IC50 [3, 7]: > 100 µM

SMILES: COc1cc2c(cc1O)CCC1C2CCC2(C)C1CCC2(O)Cc1ccc(C(C)(C)C)cc1 (stereo not drawn) [Compound 23, 2-methoxy-17α-(4-tert-butylbenzyl)oestradiol]
IC50 [3, 8]: > 100 µM

SMILES: CC12CCC3c4ccc(OS(N)(=O)=O)cc4CCC3C1CCC2=O (stereo not drawn) [Compound 24, estrone-3-O-sulphamate, reference compound]
IC50 [3, 7]: > 100 µM
inhibition of rat liver E1-STS activity [4]: 99%
inhibition of rat liver DHA-STS activity [5]: 99%
oral uterotrophic activity in rats relative to estradiol [6]: 100 times

SMILES: CC12CCC3C(=CCc4cc(OS(N)(=O)=O)ccc43)C1CCC2=O (stereo not drawn) [Compound 27, equilin-3-O-sulphamate]
IC50 [3, 7]: > 100 µM

SMILES: COc1cc2c(cc1O)CCC1C2CC[C@]2(C)CCCC12 (stereo partly drawn) [Compound 29, 2-methoxy-17-deoxyoestrone]
IC50 [3, 7]: > 100 µM

SMILES: CSc1cc2c(cc1O)CCC1C2CCC2(C)C1CCC2(O)Cc1ccc(C(C)(C)C)cc1 (stereo not drawn) [Compound 31, 17-(4-tert-Butyl-benzyl)-13-methyl-2-methylsulfanyl-7,8,9,11,12,13,14,15,16,17-decahydro-6H-cyclopenta[a]phenanthrene-3,17-diol]
Plate Assay, % inhibition 0.1 μM [2]: <1%
Plate Assay, % inhibition 1 μM [2]: <1%
Plate Assay, % inhibition 10 μM [2]: 50%

SMILES: CSc1cc2c(cc1OS(N)(=O)=O)CCC1C2CCC2(C)C1CCC2(O)Cc1ccc(C(C)(C)C)cc1 (stereo not drawn) [Compound 32, Sulfamic acid 17-(4-tert-butyl-benzyl)-17-hydroxy-13-methyl-2-methylsulfanyl-7,8,9,11,12,13,14,15,16,17-decahydro-6H-cyclopenta[a]phenanthren-3-yl ester]
inhibition at 1 µM [1]: 81.8%
Plate Assay, % inhibition 0.1 μM [2]: <1%
Plate Assay, % inhibition 1 μM [2]: <1%
Plate Assay, % inhibition 10 μM [2]: 48%

SMILES: CCSc1cc2c(cc1OS(N)(=O)=O)CCC1C2CC[C@]2(C)C(=O)CCC12 (stereo partly drawn) [Compound 38]
inhibition at 0.01 µM [1]: < 5%
inhibition at 1 µM [1]: 66%
Plate Assay, % inhibition 0.1 μM [2]: <1%
Plate Assay, % inhibition 1 μM [2]: 1%
Plate Assay, % inhibition 10 μM [2]: 16%

Results, then the compound that gave them:

IC50 [3, 7]: 10 µM
SMILES: CSc1cc2c(cc1O)CCC1C2CCC2(C)C(O)CCC12 (stereo not drawn) [Compound 1, 2-methylsulfanylestradiol]

IC50 [3, 7]: 14 µM
SMILES: COc1cc2c(cc1O)CCC1C2CCC2(C)C(=O)CCC12 (stereo not drawn) [Compound 5, 2-methoxyestrone, reference compound]

IC50 [3, 7]: 19 µM
SMILES: CCOc1cc2c(cc1O)CCC1C2CCC2(C)C(=O)CCC12 (stereo not drawn) [Compound 7, 2-ethoxyestrone]

IC50 [3, 7]: 79 µM
SMILES: COc1cc2c(cc1N)CCC1C2CCC2(C)C(=O)CCC12 (stereo not drawn) [Compound 9, 2-methoxy-3-aminoestrone]

IC50 [3, 7]: 81 µM
SMILES: CC12CCC3c4cc(F)c(O)cc4CCC3C1CCC2=O (stereo not drawn) [Compound 11, 2-fluoroestrone]

IC50 [3, 7]: 83 µM
SMILES: CC12CCC3c4cc(Cl)c(O)cc4CCC3C1CCC2=O (stereo not drawn) [Compound 12, 2-chloroestrone]

IC50 [3, 7]: > 100 µM
SMILES: C=CCc1cc2c(cc1O)CCC1C2CCC2(C)C(=O)CCC12 (stereo not drawn) [Compound 15, 2-allylestrone]

IC50 [3, 7]: > 100 µM
SMILES: CC12CCC3c4cc(C(F)F)c(O)cc4CCC3C1CCC2=O (stereo not drawn) [Compound 17, 2-difluoromethylestrone]

IC50 [3, 7]: > 100 µM
SMILES: C[S+]([O-])c1cc2c(cc1O)CCC1C2CCC2(C)C(=O)CCC12 (stereo not drawn) [Compound 18, 2-methylsulfoxyestrone]

IC50 [3, 7]: > 100 µM
SMILES: CC12CCC3c4cc(S(C)(=O)=O)c(O)cc4CCC3C1CCC2=O (stereo not drawn) [Compound 19, 2-methylsulfonylestrone]

IC50 [3, 7]: > 100 µM
SMILES: CC12CCC3c4cc([N+](=O)[O-])c(O)cc4CCC3C1CCC2=O (stereo not drawn) [Compound 20, 2-nitroestrone]

IC50 [3, 7]: > 100 µM
SMILES: CCc1cc2c(cc1O)CCC1C2CCC2(C)C(=O)CCC12 (stereo not drawn) [Compound 21, 2-ethylestrone]

IC50 [3, 7]: > 100 µM
SMILES: CCc1cc2c(cc1OS(N)(=O)=O)CCC1C2CCC2(C)C(=O)CCC12 (stereo not drawn) [Compound 26, 2-ethylestrone-3-O-sulphamate]

IC50 [3, 7]: > 100 µM
SMILES: CSc1cc2c(cc1O)CCC1C2CC[C@]2(C)CCCC12 (stereo partly drawn) [Compound 28, 2-methylsulfanyl-17-deoxyoestrone]
